In brackets after ≈: the same amount, converted by molar mass. Where two headings read alike, the source gives them in different places. Some results are limits rather than exact numbers.

Test [1] concerns MCF-7 cells. Kind of test: WST-8 growth inhibition of cultured breast cancer cells. In kind it is cell-based, human. The note with it: for IC50: Homo sapiens, MCF7, 5-FU, doses ranged from 5-300 μg/ml. As for the experimental part:
(§1) In another example, the expression of thymidylate synthase (TS) was correlated with the response of breast cancer cells to the chemotherapeutic drug 5-fluorouracil (5-FU). TS is a key enzyme in DNA biosynthesis and has been postulated to play a major role in predicting the response to 5-FU based chemotherapy. Experiments were conducted to examine this relationship. […] Doses ranged from 5-300 μg/ml.
(Tetrazolium assays rely on reduction of a dye to a coloured formazan, in cell work by metabolically active cells.)

Test [2] has as its system T47D cells. Described as above. Type of test: cell-based, human. The note with it: for IC50: Homo sapiens. The method, then: as §1
For test [3], the system named is HCC 202 cells. The test is described as above. In kind it is cell-based, human. Conditions: for IC50: Homo sapiens. As for the experimental part: as §1
Test [4] relates to HCC 2218 cells. Described as above. Conditions: for IC50: Homo sapiens. In kind it is cell-based, human. As for the experimental part:
as §1

The subject of test [5] is HCC 38 cells. The description is as above. The note with it: for IC50: Homo sapiens. In kind it is cell-based, human. The method, then:
as §1

Test [6] concerns SKBR-3 cells. Described as above. Type of test: cell-based, human. The note with it: for IC50: Homo sapiens, SK-BR-3, 5-FU, doses ranged from 5-300 μg/ml. The method, then:
as §1

Test [7] concerns SKBR-3 cells. The test is described as above. In kind it is cell-based. Conditions: Homo sapiens, SK-BR-3, 72 hours post treatment.
The test system of test [8] is MCF-7 cells. Described as above. In kind it is cell-based. The note with it: Homo sapiens, 72 hours post treatment.
Test [9] deals with MDA-MB231 cells. Conditions: MDA-MB 231 cells.
Method: For experimental conditions, cell suspensions containing 10^4 viable cells were plated into 96 well plates in 100 μl of media, and allowed to attach for 24 hours at 37° C. in a 5% CO2 atmosphere. After this incubation period, the cells were exposed to the drug at the designated doses, which were based on peak plasma concentration (PPC), as determined by published pharmacokinetic analyses. […] Media containing 0.5% FCS was then added to each well in order to maximize ER expression. Control wells contained 100 μl of the appropriate media and were treated identically to the test wells. At 72 hours post treatment, the plates were subjected to WST-8 analysis. WST-8 is a tetrazolium salt that is bioreduced by cellular dehydrogenases to yield a colored formazan product. The amount of the formazan product is directly proportional to the number of living cells. […] The absorbance of each well was measured at 460 nm using a Biotek microplate reader. For each concentration of drugs the mean absorbance±the SE was calculated. Results are expressed as % inhibition of growth compared with drug concentration. IC50 values will be determined using the median effect plot of (log fa/log fu) vs log C where fu=fraction unaffected, fa=fraction affected and C=drug concentration.

Broadly, the IC50 is the midpoint of a concentration-inhibition curve. `O=c1[nH]cc(F)c(=O)[nH]1` [5 Fluorouracil, 5-fluorouracil]: the “biological response to drug treatment (in words)” value (from here on “biological response”) in test [1] is reported as “responding to lower doses”; in test [2] it was “responding to lower doses”; in [3] (HCC 202 cells), “responded only to higher doses”; in test [4] (HCC 2218 cells) it was “responded only to higher doses”; in test [5] (HCC 38 cells), “responded only to higher doses”; in test [6], “responding to lower doses”. The IC50 in test [1] (read-out: IC50-1 FU) came out at 10 µg/mL (≈ 76.9 µM); in [1] (read-out: IC50-2 FU), 15.2 µg/mL (≈ 117 µM); in test [2] (5-FU, doses ranged from 5-300 μg/ml, read-out: IC50-1 FU), 8.64 µg/mL (≈ 66.4 µM); in test [2] (5-FU, doses ranged from 5-300 μg/ml, read-out: IC50-2 FU) it was 6.72 µg/mL (≈ 51.7 µM); in test [3] (HCC202, 5-FU, HCC 202 cells, doses ranged from 5-300 μg/ml, read-out: IC50-1 FU), 181 µg/mL (≈ 1390 µM); in test [3] (HCC202, 5-FU, HCC 202 cells, doses ranged from 5-300 μg/ml, read-out: IC50-2 FU) it was 162 µg/mL (≈ 1250 µM). Moreover, the IC50 in test [4] (HCC2218, 5-FU, HCC 2218 cells, doses ranged from 5-300 μg/ml, read-out: IC50-1 FU) was found to be 246 µg/mL (≈ 1890 µM); in test [5] (HCC38, 5-FU, HCC 38 cells, doses ranged from 5-300 μg/ml, read-out: IC50-1 FU), 216 µg/mL (≈ 1660 µM); in test [6] (read-out: IC50-1 FU), 23.3 µg/mL (≈ 179 µM); in test [6] (read-out: IC50-2 FU), 33.7 µg/mL (≈ 259 µM).
As for `CC(=O)O[C@@]12CO[C@@H]1C[C@H](O)[C@@]1(C)C(=O)[C@H](O)C3=C(C)[C@@H](OC(=O)[C@H](O)[C@@H](NC(=O)OC(C)(C)C)c4ccccc4)C[C@@](O)([C@@H](OC(=O)c4ccccc4)[C@H]21)C3(C)C` [Docetaxel, docetaxel], the IC50 in [7] (Docetaxel, SKBR3 cells, read-out: IC50-1) worked out at 6.6 µg/mL (≈ 8.17 µM); in test [7] (Docetaxel, SKBR3 cells, read-out: IC50-2), 12.5 µg/mL (≈ 15.5 µM); in [2] (Docetaxel, 72 hours post treatment, read-out: IC50-1) it was 5.5 µg/mL (≈ 6.81 µM); in test [2] (Docetaxel, 72 hours post treatment, read-out: IC50-2) it was 4.5 µg/mL (≈ 5.57 µM); in test [3] (Docetaxel, HCC202 cells, 72 hours post treatment, read-out: IC50-1) it was 25.5 µg/mL (≈ 31.6 µM); in test [3] (Docetaxel, HCC202 cells, 72 hours post treatment, read-out: IC50-2), 22 µg/mL (≈ 27.2 µM). Also, the IC50 worked out at 25 µg/mL (≈ 30.9 µM) in [4] (HCC2218, Docetaxel, HCC 2218 cells, 72 hours post treatment, read-out: IC50-1); 18 µg/mL (≈ 22.3 µM) in test [4] (HCC2218, Docetaxel, HCC 2218 cells, 72 hours post treatment, read-out: IC50-2); 58 µg/mL (≈ 71.8 µM) in [5] (Docetaxel, HCC38 cells, 72 hours post treatment, read-out: IC50-1); 59.9 µg/mL (≈ 74.1 µM) in [5] (Docetaxel, HCC38 cells, 72 hours post treatment, read-out: IC50-2); 1 µg/mL (≈ 1.24 µM) in test [8] (MCF7, Docetaxel, read-out: IC50-1); 0.8 µg/mL (≈ 0.99 µM) in test [8] (MCF7, Docetaxel, read-out: IC50-2). In addition, the “biological response” value in test [1] is “sensitive”; in test [2] it was “sensitive”; in test [3] (HCC 202 cells), “resistant”; in [4] (HCC 2218 cells), “response only to higher doses”; in test [5] (HCC 38 cells), “response only to higher doses”; in test [6] it was “sensitive”.
Turning to `CC(=O)O[C@H]1C(=O)[C@@]2(C)[C@H]([C@H](OC(=O)c3ccccc3)[C@]3(O)C[C@H](OC(=O)[C@H](O)[C@@H](NC(=O)c4ccccc4)c4ccccc4)C(C)=C1C3(C)C)[C@]1(OC(C)=O)CO[C@@H]1C[C@@H]2O` [Paclitaxel, paclitaxel], the half-maximal inhibitory concentration (IC50) was 10 µg/mL (≈ 11.7 µM) in test [7] (Paclitaxel, SKBR-3 cells, read-out: IC50-1); 8.5 µg/mL (≈ 9.95 µM) in [7] (Paclitaxel, SKBR-3 cells, read-out: IC50-2); 3 µg/mL (≈ 3.51 µM) in test [2] (Paclitaxel, 72 hours post treatment, read-out: IC50-1); 3.6 µg/mL (≈ 4.22 µM) in test [2] (Paclitaxel, 72 hours post treatment, read-out: IC50-2); over 50 µg/mL in [3] (HCC202, Paclitaxel, HCC 202 cells, 72 hours post treatment, read-out: IC50-1); over 50 µg/mL in test [3] (HCC202, Paclitaxel, HCC 202 cells, 72 hours post treatment, read-out: IC50-2). The IC50 was over 50 µg/mL in [4] (Paclitaxel, HCC2218 cells, 72 hours post treatment, read-out: IC50-1); over 50 µg/mL in test [4] (Paclitaxel, HCC2218 cells, 72 hours post treatment, read-out: IC50-2); over 50 µg/mL in test [5] (HCC38, Paclitaxel, HCC 38 cells, 72 hours post treatment, read-out: IC50-1); over 50 µg/mL in [5] (HCC38, Paclitaxel, HCC 38 cells, 72 hours post treatment, read-out: IC50-2); 6 µg/mL (≈ 7.03 µM) in test [8] (MCF7, Paclitaxel, read-out: IC50-1); 7.1 µg/mL (≈ 8.31 µM) in test [8] (MCF7, Paclitaxel, read-out: IC50-2). For the same molecule, the “biological response” value in test [1] is reported as “sensitive”; in [2], “sensitive”; in [3] (HCC 202 cells), “resistant”; in [4] (HCC 2218 cells), “displayed a response to PTX, but did not express an IC50 value”; in test [5] (HCC 38 cells) it was “displayed a response to PTX, but did not express an IC50 value”; in [6], “sensitive”.
As to `CC/C(=C(\c1ccccc1)c1ccc(OCCN(C)C)cc1)c1ccccc1` [Tamoxifen, tamoxifen], the figures for the “biological response” value in test [1], in [6] and in test [9] were “high sensitivity”, “much less sensitive response” and “much less sensitive response”, respectively.
